Measured values taken from ChEMBL document CHEMBL6153084, “The development of α, β-unsaturated lactam-based andrographolide derivatives as anti-gastric cancer agents with the ability of inhibiting the ERK/c-Fos/Jun pathway” (Eur J Med Chem, 2025).

System: MGC-803
Test: Antiproliferative activity against human MGC-803 cells assessed as inhibition of cell growth incubated for 24 to 72 hrs by MTT assay
Type: functional, cell-based

IC50 | SMILES
> 50 µM | C=C1CC[C@@H]2[C@](C)(CO)[C@H](O)CC[C@@]2(C)[C@@H]1/C=C/C1=CC(=C/c2cccc(Cl)c2)/NC1=O
> 50 µM | C=C1CC[C@@H]2[C@](C)(CO)[C@H](O)CC[C@@]2(C)[C@@H]1/C=C/C1=CC(=C/c2ccc(F)cc2)/NC1=O
17.6 µM | C=C1CC[C@@H]2[C@](C)(CO)[C@H](O)CC[C@@]2(C)[C@@H]1/C=C/C1=CC(=C\c2ccccc2)/NC1=O
18.1 µM | C=C1CC[C@@H]2[C@](C)(CO)[C@H](O)CC[C@@]2(C)[C@@H]1/C=C/C1=CC(=C/c2ccc(N(C)C)cc2)/NC1=O
7.27 µM | C=C1CC[C@@H]2[C@](C)(CO)[C@H](O)CC[C@@]2(C)[C@@H]1/C=C/C1=CC(=C/c2cc(OC)c(OC)c(OC)c2)/NC1=O
1.34 µM | C=C1CC[C@@H]2[C@](C)(CO)[C@H](O)CC[C@@]2(C)[C@@H]1/C=C/C1=CC(=C/c2cccc3ccccc23)/NC1=O
> 50 µM | C=C1CC[C@@H]2[C@](C)(CO)[C@H](O)CC[C@@]2(C)[C@@H]1/C=C/C(=C/C(=O)Cc1ccc(Cl)cc1)C(=O)N1CCCC1
> 50 µM | C=C1CC[C@@H]2[C@](C)(CO)[C@H](O)CC[C@@]2(C)[C@@H]1/C=C/C1=CC(=C/c2ccc(F)c(F)c2)/NC1=O
5.3 µM | C=C1CC[C@@H]2[C@](C)(CO)[C@H](O)CC[C@@]2(C)[C@@H]1/C=C/C1=CC(=C/c2ccc(Br)cc2)/NC1=O
> 50 µM | C=C1CC[C@@H]2[C@](C)(CO)[C@H](O)CC[C@@]2(C)[C@@H]1/C=C/C(=C/C(=O)Cc1ccc(Cl)cc1)C(=O)N1CCOCC1
15.8 µM | C=C1CC[C@@H]2[C@](C)(CO)[C@H](O)CC[C@@]2(C)[C@@H]1/C=C/C(=C/C(=O)Cc1ccc(Cl)cc1)C(=O)N1CCN(C(=O)OC(C)(C)C)CC1
12.3 µM | C=C1CC[C@@H]2[C@](C)(CO)[C@H](O)CC[C@@]2(C)[C@@H]1/C=C/C1=CC(=C/c2cccnc2)/NC1=O
37.8 µM | C=C1CC[C@@H]2[C@](C)(CO)[C@H](O)CC[C@@]2(C)[C@@H]1/C=C/C(=C/C(=O)Cc1ccc(Cl)cc1)C(=O)N1CCNCC1
> 50 µM | C=C1CC[C@@H]2[C@](C)(CO)[C@H](O)CC[C@@]2(C)[C@@H]1/C=C/C1=CC(=C/c2ccc([N+](=O)[O-])c(Cl)c2)/NC1=O
31.8 µM | C=C1CC[C@@H]2[C@](C)(CO)[C@H](O)CC[C@@]2(C)[C@@H]1C/C=C1/C(=O)OC[C@H]1O [ANDROGRAPHOLIDE]
> 50 µM | C=C1CC[C@@H]2[C@](C)(CO)[C@H](O)CC[C@@]2(C)[C@@H]1/C=C/C(=C/C(=O)Cc1ccc(Cl)cc1)C(=O)N1CCN(C)CC1
8.52 µM | C=C1CC[C@@H]2[C@](C)(CO)[C@H](O)CC[C@@]2(C)[C@@H]1/C=C/C1=CC(=C/c2ccc(Cl)cc2Cl)/NC1=O

IC50 | SMILES
> 50 µM | C=C1CC[C@@H]2[C@](C)(CO)[C@H](O)CC[C@@]2(C)[C@@H]1/C=C/C(=C/C(=O)Cc1ccc(Cl)cc1)C(=O)N1CCCCC1
19.2 µM | C=C1CC[C@@H]2[C@](C)(CO)[C@H](O)CC[C@@]2(C)[C@@H]1/C=C/C1=CC(=C\c2ccc(Cl)cc2)/NC1=O
6.05 µM | C=C1CC[C@@H]2[C@](C)(CO)[C@H](O)CC[C@@]2(C)[C@@H]1/C=C/C1=CC(=C/c2ccc(Cl)cc2)/NC1=O
14.1 µM | C=C1CC[C@@H]2[C@](C)(CO)[C@H](O)CC[C@@]2(C)[C@@H]1/C=C/C1=CC(=C/c2cccc(C)c2C)/NC1=O
> 50 µM | C=C1CC[C@@H]2[C@](C)(CO)[C@H](O)CC[C@@]2(C)[C@@H]1/C=C/C1=CC(=C2CCCCC2)NC1=O
1.6 µM | C=C1CC[C@@H]2[C@](C)(CO)[C@H](O)CC[C@@]2(C)[C@@H]1/C=C/C1=CC(=C/c2ccccc2Cl)/NC1=O
1.76 µM | C=C1CC[C@@H]2[C@](C)(CO)[C@H](O)CC[C@@]2(C)[C@@H]1/C=C/C1=CC(=C/c2ccccc2C)/NC1=O
2.43 µM | C=C1CC[C@@H]2[C@](C)(CO)[C@H](O)CC[C@@]2(C)[C@@H]1/C=C/C1=CC(=C/c2ccc3ccccc3c2)/NC1=O
> 50 µM | C=C1CC[C@@H]2[C@](C)(CO)[C@H](O)CC[C@@]2(C)[C@@H]1/C=C/C(=C/C(=O)Cc1ccc(Cl)cc1)C(=O)N1CCN(CCO)CC1
19.5 µM | C=C1CC[C@@H]2[C@](C)(CO)[C@H](O)CC[C@@]2(C)[C@@H]1/C=C/C1=CC(=C/c2ccc(C(C)(C)C)cc2)/NC1=O
14.7 µM | C=C1CC[C@@H]2[C@](C)(CO)[C@H](O)CC[C@@]2(C)[C@@H]1/C=C/C1=CC(=C\c2ccc(C)cc2)/NC1=O
> 50 µM | C=C1CC[C@@H]2[C@](C)(CO)[C@H](O)CC[C@@]2(C)[C@@H]1/C=C/C(=C/C(=O)Cc1ccc(Cl)cc1)C(=O)N(C)C
9.56 µM | C=C1CC[C@@H]2[C@](C)(CO)[C@H](O)CC[C@@]2(C)[C@@H]1/C=C/C1=CC(=C/c2ccccc2)/NC1=O
> 50 µM | C=C1CC[C@@H]2[C@](C)(CO)[C@H](O)CC[C@@]2(C)[C@@H]1/C=C/C(=C/C(=O)Cc1ccc(Cl)cc1)C(=O)N1CCN(CC)CC1
15.7 µM | C=C1CC[C@@H]2[C@](C)(CO)[C@H](O)CC[C@@]2(C)[C@@H]1/C=C/C1=CC(=C/C2CCCCC2)/NC1=O
> 50 µM | C=C1CC[C@@H]2[C@](C)(CO)[C@H](O)CC[C@@]2(C)[C@@H]1/C=C/C1=CC(=C(C)C)NC1=O
4.56 µM | C=C1CC[C@@H]2[C@](C)(CO)[C@H](O)CC[C@@]2(C)[C@@H]1/C=C/C1=CC(=C/c2cccc(C)c2)/NC1=O
